Reference: PubChem BioAssay AID2060618 (Molecular Pharmacology Branch, DTP, NCI, 2025)
pIC50: −log10 of the molar value.

Tested on: 454973-116-R2-J3-PDC spheroids, percent test/control viability
Assay: Anticancer human tumor 454973-116-R2-J3-PDC patient-derived pancreatic carcinoma cell line growth inhibition [CLK]
Conditions: spheroids with HUVEC and MSC; for pIC50: curve of first compound; for viability, T/C: stronger effect = lower value
How it was run: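 Patient-derived tumor cells grown as complex spheroids with HUVEC endothelial cells and mesenchymal stem cells, treated with drug combinations. Concentrations descend in half-log steps from near clinical Cmax, or from 10 microM if Cmax unknown.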
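Also: spheroids exposed to compounds for 7 days before readout.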

CC(C)CC(NC(=O)C(Cc1ccccc1)NC(=O)c1cnccn1)B(O)O (centres undefined) + CN1CCN(c2cc(C(=O)Nc3cc4cc(-c5cnn(C)c5)ccc4cn3)ccn2)CC1 showed a pIC50 (second compound 0.0316 µM) of 8.48, a pIC50 (second compound 0.1 µM) of 8.82 and a pIC50 (second compound 0.316 µM) greater than 9.02. For the same molecule, the pIC50 (second compound 1 µM) was greater than 9.02, the pIC50 (second compound 3.16 µM) was greater than 9.02 and the pIC50 (second compound 10 µM) was greater than 9.02. The viability, T/C (second compound 0.0316 µM, first compound 0.000949 µM) was 94.4%, the viability, T/C (second compound 0.0316 µM, first compound 0.003 µM) was 54.7% and the viability, T/C (second compound 0.0316 µM, first compound 0.00949 µM) was 0.27%. It also gave a viability, T/C (second compound 0.0316 µM, first compound 0.03 µM) of 0.3%, a viability, T/C (second compound 0.0316 µM, first compound 0.0949 µM) of 0.17% and a viability, T/C (second compound 0.0316 µM, first compound 0.3 µM) of 0.14%. It also gave a viability, T/C (second compound 0.1 µM, first compound 0.000949 µM) of 73.7%, a viability, T/C (second compound 0.1 µM, first compound 0.003 µM) of 14.8% and a viability, T/C (second compound 0.1 µM, first compound 0.00949 µM) of 0.41%. For the same molecule, the viability, T/C (second compound 0.1 µM, first compound 0.03 µM) was 0.19%, the viability, T/C (second compound 0.1 µM, first compound 0.0949 µM) was 0.16% and the viability, T/C (second compound 0.1 µM, first compound 0.3 µM) was 0.14%. It also gave a viability, T/C (second compound 0.316 µM, first compound 0.000949 µM) of 2.21%, a viability, T/C (second compound 0.316 µM, first compound 0.003 µM) of 0.7% and a viability, T/C (second compound 0.316 µM, first compound 0.00949 µM) of 1.43%. For the same molecule, the viability, T/C (second compound 0.316 µM, first compound 0.03 µM) was 0.12%, the viability, T/C (second compound 0.316 µM, first compound 0.0949 µM) was 0.11% and the viability, T/C (second compound 0.316 µM, first compound 0.3 µM) was 0.09%. It also gave a viability, T/C (second compound 1 µM, first compound 0.000949 µM) of 0.12%, a viability, T/C (second compound 1 µM, first compound 0.003 µM) of 0.19% and a viability, T/C (second compound 1 µM, first compound 0.00949 µM) of 0.09%. For the same molecule, the viability, T/C (second compound 1 µM, first compound 0.03 µM) was 0.05%, the viability, T/C (second compound 1 µM, first compound 0.0949 µM) was 0.07% and the viability, T/C (second compound 1 µM, first compound 0.3 µM) was 0.07%. The viability, T/C (second compound 3.16 µM, first compound 0.000949 µM) was 0.16%, the viability, T/C (second compound 3.16 µM, first compound 0.003 µM) was 1.02% and the viability, T/C (second compound 3.16 µM, first compound 0.00949 µM) was 0.07%. It also gave a viability, T/C (second compound 3.16 µM, first compound 0.03 µM) of 0.05%, a viability, T/C (second compound 3.16 µM, first compound 0.0949 µM) of 0.6% and a viability, T/C (second compound 3.16 µM, first compound 0.3 µM) of 0.79%. It also gave a viability, T/C (second compound 10 µM, first compound 0.000949 µM) of 0.09%, a viability, T/C (second compound 10 µM, first compound 0.003 µM) of 0.13% and a viability, T/C (second compound 10 µM, first compound 0.00949 µM) of 0.88%. It also gave a viability, T/C (second compound 10 µM, first compound 0.03 µM) of 0.09%, a viability, T/C (second compound 10 µM, first compound 0.0949 µM) of 0.16% and a viability, T/C (second compound 10 µM, first compound 0.3 µM) of 0.17%.
With O=C(c1cc(Cc2n[nH]c(=O)c3ccccc23)ccc1F)N1CCN(C(=O)C2CC2)CC1 + CN1CCN(c2cc(C(=O)Nc3cc4cc(-c5cnn(C)c5)ccc4cn3)ccn2)CC1 the pIC50 (second compound 0.0316 µM) was less than 5.00, the pIC50 (second compound 0.1 µM) was 5.23 and the pIC50 (second compound 0.316 µM) was greater than 7.50. It also gave a pIC50 (second compound 1 µM) greater than 7.50, a pIC50 (second compound 3.16 µM) greater than 7.50 and a pIC50 (second compound 10 µM) greater than 7.50. The viability, T/C (second compound 0.0316 µM, first compound 0.0316 µM) was 99%, the viability, T/C (second compound 0.0316 µM, first compound 0.1 µM) was 99.5% and the viability, T/C (second compound 0.0316 µM, first compound 0.316 µM) was 101%. It also gave a viability, T/C (second compound 0.0316 µM, first compound 1 µM) of 115%, a viability, T/C (second compound 0.0316 µM, first compound 3.16 µM) of 94.7% and a viability, T/C (second compound 0.0316 µM, first compound 10 µM) of 71.8%. For the same molecule, the viability, T/C (second compound 0.1 µM, first compound 0.0316 µM) was 75.8%, the viability, T/C (second compound 0.1 µM, first compound 0.1 µM) was 77% and the viability, T/C (second compound 0.1 µM, first compound 0.316 µM) was 73.5%. The viability, T/C (second compound 0.1 µM, first compound 1 µM) was 75.7%, the viability, T/C (second compound 0.1 µM, first compound 3.16 µM) was 62.5% and the viability, T/C (second compound 0.1 µM, first compound 10 µM) was 38%. For the same molecule, the viability, T/C (second compound 0.316 µM, first compound 0.0316 µM) was 1.44%, the viability, T/C (second compound 0.316 µM, first compound 0.1 µM) was 2.27% and the viability, T/C (second compound 0.316 µM, first compound 0.316 µM) was 1.78%. The viability, T/C (second compound 0.316 µM, first compound 1 µM) was 1.98%, the viability, T/C (second compound 0.316 µM, first compound 3.16 µM) was 2.16% and the viability, T/C (second compound 0.316 µM, first compound 10 µM) was 2.03%. The viability, T/C (second compound 1 µM, first compound 0.0316 µM) was 0.12%, the viability, T/C (second compound 1 µM, first compound 0.1 µM) was 0.14% and the viability, T/C (second compound 1 µM, first compound 0.316 µM) was 1.94%. It also gave a viability, T/C (second compound 1 µM, first compound 1 µM) of 0.08%, a viability, T/C (second compound 1 µM, first compound 3.16 µM) of 0.83% and a viability, T/C (second compound 1 µM, first compound 10 µM) of 0.08%. The viability, T/C (second compound 3.16 µM, first compound 0.0316 µM) was 0.13%, the viability, T/C (second compound 3.16 µM, first compound 0.1 µM) was 0.21% and the viability, T/C (second compound 3.16 µM, first compound 0.316 µM) was 0.33%. It also gave a viability, T/C (second compound 3.16 µM, first compound 1 µM) of 0.13%, a viability, T/C (second compound 3.16 µM, first compound 3.16 µM) of 0.29% and a viability, T/C (second compound 3.16 µM, first compound 10 µM) of 0.27%. For the same molecule, the viability, T/C (second compound 10 µM, first compound 0.0316 µM) was 1.42%, the viability, T/C (second compound 10 µM, first compound 0.1 µM) was 0.14% and the viability, T/C (second compound 10 µM, first compound 0.316 µM) was 0.17%. For the same molecule, the viability, T/C (second compound 10 µM, first compound 1 µM) was 0.13%, the viability, T/C (second compound 10 µM, first compound 3.16 µM) was 0.39% and the viability, T/C (second compound 10 µM, first compound 10 µM) was 0.22%.
